Measurements published in DBAASP.
Values after ≈ are worked out from the molar mass of the structure shown. Values joined by “and” are separate entries in the source; they are usually repeats but may differ in a detail not shown here. Equal entries are not always repeated. Blank lines part the entries; values can stand above or below the molecule they belong to.

Assays:
Assay in all cases: ≥ marks a high value that may be exact or a test limit, other limits are often not marked, values filed in µg/mL are converted to µM
[1] = tested on: Staphylococcus aureus ATCC 33591
[2] = tested on: Acinetobacter baumannii ATCC 17978D-5
[3] = tested on: Pseudomonas aeruginosa ATCC 27853
[4] = tested on: Staphylococcus epidermidis ATCC 51625
[5] = tested on: Enterococcus faecium ATCC 700221
[6] = tested on: Streptococcus pneumoniae ATCC 49619
[7] = tested on: Pseudomonas aeruginosa ATCC 19660
[8] = tested on: Klebsiella aerogenes ATCC 13048
[9] = tested on: Staphylococcus epidermidis ATCC 9709
Listeria monocytogenes = tested on: Listeria monocytogenes
[10] = tested on: Escherichia coli ATCC 25404
Escherichia coli O157 = tested on: Escherichia coli O157
Salmonella typhimurium = tested on: Salmonella typhimurium
[11] = tested on: Staphylococcus aureus ATCC 25923
[12] = tested on: Micrococcus luteus ATCC 10420
Enterobacter cloacae = tested on: Enterobacter cloacae
Klebsiella oxytoca = tested on: Klebsiella oxytoca
Morganella morganii = tested on: Morganella morganii
[13] = tested on: Escherichia coli ATCC 25922
[14] = tested on: Klebsiella pneumoniae NDM-1
[15] = tested on: Bacillus subtilis ATCC 23857
[16] = tested on: Staphylococcus aureus ATCC 1717
Citrobacter freundii = tested on: Citrobacter freundii
Enterococcus faecalis = tested on: Enterococcus faecalis
Escherichia coli NDM-1 = tested on: Escherichia coli NDM-1
Escherichia coli ESBL = tested on: Escherichia coli ESBL
Staphylococcus aureus = tested on: Staphylococcus aureus
Escherichia coli BL21 = tested on: Escherichia coli BL21
Bacillus subtilis 168 = tested on: Bacillus subtilis 168
Vibrio cholerae N16961 = tested on: Vibrio cholerae N16961
Klebsiella pneumoniae = tested on: Klebsiella pneumoniae
[17] = tested on: Pseudomonas aeruginosa ATCC 15442
Escherichia coli D31 = tested on: Escherichia coli D31
[18] = tested on: Candida albicans ATCC 10231
[19] = tested on: Streptococcus mutans ATCC 25175
[20] = tested on: Bacillus cereus ATCC 14579
[21] = tested on: Bacillus amyloliquefaciens ATCC 23842
[22] = tested on: Salmonella enterica ATCC H9812
[23] = tested on: Proteus mirabilis ATCC 35659
[24] = tested on: Enterococcus faecium 5F-10
[25] = tested on: Enterococcus faecalis 1F-1
[26] = tested on: Pseudomonas aeruginosa PAO1
[27] = tested on: Bacillus licheniformis ATCC 14580
[28] = tested on: Bacillus subtilis ATCC 6051
[29] = tested on: Staphylococcus aureus ATCC 29213

Compound: C[C@H](NC(=O)[C@H](Cc1ccccc1)NC(=O)[C@H](C)NC(=O)[C@H](Cc1ccccc1)NC(=O)[C@H](C)NC(=O)[C@H](Cc1ccccc1)NC(=O)[C@H](CCCCN)NC(=O)[C@H](CCCCN)NC(=O)[C@H](C)NC(=O)[C@H](Cc1ccccc1)NC(=O)[C@H](CCCCN)NC(=O)[C@H](CCCCN)NC(=O)[C@H](Cc1ccccc1)NC(=O)[C@H](CCCCN)NC(=O)[C@H](CCCCN)NC(=O)[C@H](C)NC(=O)[C@H](Cc1ccccc1)NC(=O)[C@H](CCCCN)NC(=O)[C@H](CCCCN)NC(=O)[C@H](C)NC(=O)[C@@H](N)Cc1ccccc1)C(=O)N[C@@H](Cc1ccccc1)C(=O)O [FAKKFAKKFKKFAKKFAFAFAF]
- MIC [1]: 24.2 µM (≈ 64 µg/mL)
- MIC [2]: 12.1 µM (≈ 32 µg/mL)
- MIC [3]: 12.1 µM (≈ 32 µg/mL)
- MIC [4]: 3.02 µM (≈ 8 µg/mL)
- MIC [5]: 12.1 µM (≈ 32 µg/mL)
- MIC [6]: 6.04 µM (≈ 16 µg/mL)
- MIC [7]: 12.1 µM (≈ 32 µg/mL)
- MIC [8]: 12.1 µM (≈ 32 µg/mL)

Compound: CC(C)C[C@H](NC(=O)[C@H](CC(C)C)NC(=O)[C@H](CCCCN)NC(=O)[C@H](CO)NC(=O)[C@H](CC(C)C)NC(=O)[C@H](C)NC(=O)[C@H](Cc1cnc[nH]1)NC(=O)[C@H](Cc1c[nH]c2ccccc12)NC(=O)[C@H](CC(C)C)NC(=O)[C@H](C)NC(=O)CNC(=O)[C@H](CC(C)C)NC(=O)[C@@H](N)Cc1ccccc1)C(=O)O [FLGALWHALSKLL]
- MIC [9]: 4 µM (≈ 5.88 µg/mL)
- MIC (Listeria monocytogenes): 8 µM (≈ 11.8 µg/mL)
- MIC [10]: ≥ 64 µM
- MIC (Escherichia coli O157): ≥ 64 µM
- MIC (Salmonella typhimurium): ≥ 64 µM
- MIC [11]: 8 µM (≈ 11.8 µg/mL)
- MIC [12]: 2 µM (≈ 2.94 µg/mL)

Compound: CC[C@H](C)[C@H](NC(=O)CNC(=O)[C@@H](NC(=O)[C@H](CCCCN)NC(=O)[C@H](C)NC(=O)[C@@H](NC(=O)[C@@H](NC(=O)CN)[C@@H](C)CC)[C@@H](C)CC)[C@@H](C)CC)C(=O)N[C@@H](CCCCN)C(=O)N[C@H](C(=O)N[C@@H](CCCCN)C(=O)N[C@@H](CCCCN)C(N)=O)[C@@H](C)CC [GIIAKIGIKIKK]
- MIC (Enterobacter cloacae): 22.6 µM (≈ 29 µg/mL)
- MIC (Klebsiella oxytoca): ≥ 64 µM
- MIC (Morganella morganii): ≥ 128 µM
- MIC [13]: 32 µM (≈ 41 µg/mL)
- MIC [14]: 22.6 µM (≈ 29 µg/mL)
- MIC [15]: 16 µM (≈ 20.5 µg/mL)
- MIC [16]: ≥ 128 µM
- MIC (Citrobacter freundii): 22.6 µM (≈ 29 µg/mL)
- MIC (Enterococcus faecalis): ≥ 128 µM
- MIC (Escherichia coli NDM-1): 16 µM (≈ 20.5 µg/mL)

Second part, led by results:

- MIC (Escherichia coli ESBL): 20 µM (≈ 30.4 µg/mL)
- MIC (Staphylococcus aureus): 20 µM (≈ 30.4 µg/mL)
- MIC (Escherichia coli BL21): 20 µM (≈ 30.4 µg/mL)
- MIC (Bacillus subtilis 168): 2.5 µM (≈ 3.81 µg/mL)
Compound: CC[C@H](C)[C@H](NC(=O)CN)C(=O)N[C@H](C(=O)N[C@@H](CCCCN)C(=O)N[C@@H](CCCCN)C(=O)N[C@H](C(=O)N[C@H](C(=O)N[C@@H](CCCCN)C(=O)N[C@@H](CCCCN)C(=O)N[C@H](C(=O)N[C@H](C(=O)N[C@@H](CCCCN)C(=O)N[C@@H](CCCCN)C(N)=O)[C@@H](C)CC)[C@@H](C)CC)[C@@H](C)CC)[C@@H](C)CC)[C@@H](C)CC [GIIKKIIKKIIKK]

- MIC [11]: 8 µM and 22 µM
- MIC (Staphylococcus aureus): 16 µM (≈ 46.7 µg/mL)
- MIC (Klebsiella pneumoniae): 8 µM (≈ 23.3 µg/mL)
Compound: CC[C@H](C)[C@H](NC(=O)CNC(=O)[C@H](CC(C)C)NC(=O)[C@H](CC(C)C)NC(=O)[C@H](C)NC(=O)[C@H](CO)NC(=O)[C@H](CCCCN)NC(=O)[C@@H](NC(=O)CN)[C@@H](C)CC)C(=O)N[C@@H](C)C(=O)N[C@@H](CCCCN)C(=O)N[C@@H](CC(N)=O)C(=O)N[C@H](C(=O)NCC(=O)N[C@@H](CCSC)C(=O)N[C@@H](CO)C(=O)N[C@@H](CC(C)C)C(=O)N[C@@H](CC(C)C)C(=O)N[C@@H](CCC(N)=O)C(=O)N[C@@H](CCCCN)C(=O)N[C@@H](C)C(=O)N[C@@H](CCC(N)=O)C(=O)N[C@H]1CSSC[C@@H](C(N)=O)NC(=O)[C@H](CO)NC(=O)CNC(=O)[C@H](CO)NC(=O)[C@H](CC(C)C)NC(=O)[C@H](CCCCN)NC1=O)C(C)C [GIKSALLGIAKNVGMSLLQKAQCKLSGSC]
- MIC (Vibrio cholerae N16961): 10 µM (≈ 29.2 µg/mL)

- MIC [11]: > 100 µM
- MIC [17]: ≥ 100 µM
- MIC (Escherichia coli D31): ≥ 100 µM
- MIC [18]: > 100 µM
- MIC [19]: ≥ 100 µM
Compound: CC[C@H](C)[C@H](NC(=O)[C@@H](NC(=O)CN)C(C)C)C(=O)N[C@H](C(=O)N[C@@H](CC(=O)O)C(=O)N[C@@H](C)C(=O)N[C@@H](CC(C)C)C(=O)N[C@@H](CCCCN)C(=O)NCC(=O)N[C@@H](C)C(=O)N[C@@H](C)C(=O)N[C@@H](CCCCN)C(=O)N[C@H](C(=O)N[C@H](C(=O)N[C@@H](C)C(=O)N[C@@H](C)C(=O)N[C@@H](CCC(=O)O)C(=O)N[C@@H](CC(C)C)C(=O)N1CCC[C@H]1C(=O)N[C@@H](CCCN=C(N)N)C(=O)N[C@@H](CCCCN)C(=O)N[C@@H](C)C(=O)N[C@@H](Cc1cnc[nH]1)C(N)=O)C(C)C)[C@@H](C)O)[C@@H](C)O [GVITDALKGAAKTVAAELPRKAH]

- MIC [20]: ≥ 182 µM
- MIC [21]: ≥ 182 µM
- MIC [22]: ≥ 182 µM
- MIC [13]: 91.2 µM (≈ 64 µg/mL)
- MIC [23]: ≥ 182 µM
- MIC [24]: ≥ 182 µM
- MIC [25]: ≥ 182 µM
- MIC [26]: > 182 µM
- MIC [27]: ≥ 182 µM
- MIC [28]: ≥ 182 µM
- MIC [29]: > 182 µM
Compound: CC(C)C[C@H](NC(=O)[C@@H](N)CC(C)C)C(=O)N[C@@H](CO)C(=O)N[C@@H](CCCN=C(N)N)C(=O)N[C@H](C(=O)N[C@@H](CC(=O)O)C(=O)O)C(C)C [LLSRVD]
